Reference: publication PMC10689823, “Discovery of a Drug-like, Natural Product-Inspired DCAF11 Ligand Chemotype” (Nature Communications, 2023)

Columns and labels:
[1] = tested on: Hep G2 cells; test: Cell viability assay (CellTiter-Glo) in Hep G2 cells; assay type: cell-based; details: Homo sapiens, HepG2, 72 h
Description: Jurkat cells (3 × 10^3) and Hep G2 cells (3.5 × 10^3) were seeded in 96-well plates in 100 μL culture medium. Cells were treated with compounds dissolved in 50 μl medium at the indicated concentration for 72 h, at the same time, one plate of cells without compounds treatment was used for the cell count at time zero. After adding 40 μl of CellTiter-Glo® reagent (Promega, G7571) to each well for 10 min at room temperature, the luminescence was measured on a Spark® Multimode Microplate Reader (Tecan). The data was analyzed by the GraphPad Prism 9.0.

[2] = biological target: PDEδ (Homo sapiens, UniProt O43924); test: PDEδ levels by Western blot in Jurkat cells; assay type: cell-based; parameters: endogenous in cells; host or cells: Jurkat; details: 10 μM, 6 h
[3] = biological target: T1, DCAF11 (Homo sapiens, UniProt Q8TEB1); test: Affinity-based enrichment (biotin-streptavidin pulldown) in Hep G2 cells overexpressing HA-DCAF11; assay type: binding; parameters: host or cells: Hep G2; details: 100 μM compound 2 pretreatment for 1 h
Description: Hep G2 cells (1 × 10^6 cells/well) were seeded in 6-well plates and incubated for 24 h. On the next day, the cells were transfected with 1 µg pCMV3-N-HA-DCAF11 plasmid (Sino Biological, HG16257-NY) or 1 µg empty vector (pcDNA3.1(+), Thermo Fisher, V79020) and 2.5 µL FuGENE® HD transfection reagent (Promega, E2311) per well. The cells were incubated for 48 h prior to treatment with 100 μM compound 2 for 1 h. […] The cells were washed with ice-cold PBS, then lysed in lysis buffer (150 mM sodium chloride, 1% NP-40, 50 mM TRIS-HCl, pH 8.0 with complete protease inhibitor cocktail (Roche, 11836170001)) for 30 min on ice. After centrifugation at 16,000 x g, the supernatant was transferred into a new tube and the protein concentration was determined using the DC protein assay (BIO-RAD, 5000116).
The supernatant was discarded and 1 mg of lysate in 500 µL lysis buffer was added to the beads and incubated for 1 h at room temperature with overhead rotation. The beads were washed twice with 500 µL washing buffer (50 mM PIPES (pH 7.4), 50 mM NaCl, 75 mM MgCl2, 5 mM EGTA, 0.1% NP-40, 0.1% Triton X-100, 0.1% Tween20) and twice with PBS for 10 min each at room temperature with overhead rotation. Enriched proteins were eluted by boiling of the beads at 95 °C for 5 min in 20 µL of a supersaturated (25 mM) biotin solution and visualized by Western Blotting as described above.

[4] = biological target: T1, DCAF11; test: In-gel fluorescence labelling of purified DCAF11; assay type: binding; details: purified DCAF11 pretreated with compound 2 for 40 min, then 18 for 40 min
Description: Purified DCAF11 protein (1 μg, Origene, TP760719) was diluted in PBS buffer that is mixed with compound 2 or BODIPY derivative 18 at the indicated concentration at room temperature. Samples were diluted with 5 × SDS sample loading buffer and heated at 95 °C for 5 min. Proteins were separated using SDS-PAGE and were visualized using the ChemiDoc MP Imaging System (BIO-RAD) at 488 nm and the results were analyzed by Image Lab (BIORAD).

[5] = biological target: T2, BRD2 and DCAF11 (Homo sapiens, UniProt P25440+Q8TEB1); test: Co-immunoprecipitation of FLAG-BRD2 and HA-DCAF11 in Hep G2 cells; assay type: cell-based; details: MG-132 10 μM, 40 min, compound 10 μM
T2 construct: expressed in transfected cells; host or cells: Hep G2
Description: Hep G2 cells were seeded in 6-well plates, 24 h later, cells were transiently transfected with HA-DCAF11 (Sino Biological, HG16257-NY) and FLAG-BRD2 for 48 h using the FuGENE® HD transfection reagent (Promega, E2311). […] After determination of the protein concentration, cell lysates were incubated with anti-FLAG magnetic beads (30 μl / sample, Sigma, M8823) at 4 °C for 4 h and washed three times with washing buffer (0.2% NP-40, 25 mM Tris-HCl pH 7.4, 150 mM NaCl). The beads were diluted with PBS, mixed with SDS sample buffer and heated at 95 °C for 10 min, followed by western blot analysis.

[6] = biological target: BRD2 (Homo sapiens, UniProt P25440); test: BRD2 levels by Western blot in Hep G2 and MDA-MB-231 cells (incl. RNA interference); assay type: cell-based; parameters: endogenous in cells; host or cells: Hep G2; MDA-MB-231
Description: Cells were washed with PBS and lysed in lysis buffer (50 mM Tris-HCl, pH 7.4, 150 mM NaCl, 1% Triton X-100, 1% sodium deoxycholate, 0.1% SDS) with complete protease inhibitor cocktail (Roche, 11836170001) for 30 min on ice. For Ramos cells, cell pellets were lysed in lysis buffer (50 mM Tris-HCl, pH 8, 150 mM NaCl, 1% NP-40, 0.5% sodium deoxycholate) with complete protease inhibitor cocktail. After centrifugation at 16,000 x g, the supernatant was transferred into a new tube and the protein concentration was determined by DC protein assay (BIO-RAD, 5000116). Proteins were separated by SDS-PAGE and transferred to a PVDF membrane (Thermo scientific, 0.45 μm, 88518). For PDEδ, BRD2, GAPDH, BRD4, Vinculin and BTK, the membranes were blocked with Intercept® Blocking Buffer (LI-COR Biosciences, 927-70001) at room temperature for 1 h. The primary antibodies for these proteins were diluted with Intercept® Blocking Buffer (1:500 for PDEδ, 1:3000 for Vinculin, and 1:1000 for other proteins) and incubated with the membranes overnight at 4 °C. Membranes were washed with PBS + 0.1% Tween 20 (PBS-T) five times and incubated with secondary antibodies conjugated to IRDye® Infrared Fluorescent Dyes (1:5000, LI-COR Biosciences) at room temperature for 1 h with protection from light. After washing the membrane, signals were visualized using the ChemiDoc MP Imaging System (BIO-RAD Laboratories). For detection of LC3B, BRD3, BLK, DCAF11, DDB1 RBX1, FIP200, V5- and FLAG-Tag the membranes were blocked with 5% milk in PBS-T at room temperature for 1 h. The primary antibodies for these proteins were diluted in 5% milk in PBS-T buffer (1:200 for BRD3, 1:1000 for other proteins) and incubated with the membranes overnight at 4 °C. Membranes were washed with PBS-T five times and incubated with HRP secondary antibodies (1:1500) at room temperature for 1 h. After washing the membrane, protein detection was performed using Western blotting detection reagent (Thermo Scientific, 34095) and the ChemiDoc MP Imaging System (BIO-RAD). Relative band intensities were quantified using Image Lab (BIO-RAD).

O=C1Nc2ccc(Br)cc2C1=Cc1cc(Br)c(O)c(Br)c1 [Compound 2]
GI50 [1]: > 30 µM
PDEδ protein levels, ligands alone or in combination [2]: did not reduce PDEδ protein levels
competition of DCAF11 enrichment by probe 14 [3]: reduced the enrichment
competition of DCAF11 labelling by 18 [4]: binding is prevented

Cc1sc2c(c1C)C(c1ccc(Cl)cc1)=N[C@@H](CC(=O)NCCOCCOCCOCCOCCNC(=O)COc1c(Br)cc(/C=C3\C(=O)Nc4ccc(Br)cc43)cc1Br)c1nnc(C)n1-2 [Compound 9]
complex formation between BRD2 and DCAF11 (co-immunoprecipitation) [5]: mediates complex formation between BRD2 and DCAF11
BRD2 depletion in Hep G2 and MDA-MB-231 cells ([6]; 4 h): BRD2 depletion was also observed
BRD2 degradation after siRNA-mediated depletion of RBX1 ([6]; MDA-MB-231 cells, RBX1 siRNA 30 nM, 48 h, 3 μM compound 9, 4 h): did not induce degradation of BRD2 anymore
